Test results published in PMC2740427 (The Journal of Biological Chemistry, 2009).
Like-named read-outs stand apart in the source and are kept apart here.

Legend:
MCT1 [1] = target: T1, MCT1 (Rattus norvegicus, UniProt P53987); type: cell-based; conditions: read-out: % inhibition (irreversible) at 0.2 mM
T1 sequence (P53987 1-494): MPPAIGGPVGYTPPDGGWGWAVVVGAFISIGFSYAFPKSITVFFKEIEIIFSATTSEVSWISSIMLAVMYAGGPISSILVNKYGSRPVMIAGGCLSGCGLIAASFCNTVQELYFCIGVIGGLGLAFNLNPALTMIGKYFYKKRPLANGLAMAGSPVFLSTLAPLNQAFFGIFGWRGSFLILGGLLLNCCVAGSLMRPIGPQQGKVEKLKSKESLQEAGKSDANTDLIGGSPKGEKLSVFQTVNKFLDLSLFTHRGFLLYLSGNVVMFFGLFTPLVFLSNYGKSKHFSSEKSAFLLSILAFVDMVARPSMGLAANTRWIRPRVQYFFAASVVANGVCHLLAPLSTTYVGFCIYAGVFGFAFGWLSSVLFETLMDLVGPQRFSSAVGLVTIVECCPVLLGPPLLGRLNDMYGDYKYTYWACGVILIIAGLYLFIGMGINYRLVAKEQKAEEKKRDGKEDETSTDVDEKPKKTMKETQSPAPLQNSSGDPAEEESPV

MCT1 [2] = target: T1, MCT1; test: inhibition of L-[…]lactate uptake in Xenopus oocytes, DIDS present in assay; type: cell-based; conditions: read-out: % inhibition (reversible) at 0.2 mM

O=S(=O)(O)c1cc(N=C=S)ccc1/C=C/c1ccc(N=C=S)cc1S(=O)(=O)O [DIDS] gave an inhibition at 200 µM (MCT1 [1]) of roughly 60% and an inhibition at 200 µM (MCT1 [2]) of roughly 60%.
